Measured values reported in patent US20090142323A1, “METHODS FOR TREATING A DISORDER BY REGULATING GPRC6A” (priority 2007, published 2009).

Legend:
[1] = molecular target: T1, calcium sensing receptor (CASR) (Rattus norvegicus, UniProt P48442); test: phospho-ERK in HEK-293 cells transfected with calcium sensing receptor; type: cell-based; details: HEK293 transfected with CASR
T1 construct: expressed in transfected cells; host or cells: HEK-293
T1 sequence (P48442 20-1079): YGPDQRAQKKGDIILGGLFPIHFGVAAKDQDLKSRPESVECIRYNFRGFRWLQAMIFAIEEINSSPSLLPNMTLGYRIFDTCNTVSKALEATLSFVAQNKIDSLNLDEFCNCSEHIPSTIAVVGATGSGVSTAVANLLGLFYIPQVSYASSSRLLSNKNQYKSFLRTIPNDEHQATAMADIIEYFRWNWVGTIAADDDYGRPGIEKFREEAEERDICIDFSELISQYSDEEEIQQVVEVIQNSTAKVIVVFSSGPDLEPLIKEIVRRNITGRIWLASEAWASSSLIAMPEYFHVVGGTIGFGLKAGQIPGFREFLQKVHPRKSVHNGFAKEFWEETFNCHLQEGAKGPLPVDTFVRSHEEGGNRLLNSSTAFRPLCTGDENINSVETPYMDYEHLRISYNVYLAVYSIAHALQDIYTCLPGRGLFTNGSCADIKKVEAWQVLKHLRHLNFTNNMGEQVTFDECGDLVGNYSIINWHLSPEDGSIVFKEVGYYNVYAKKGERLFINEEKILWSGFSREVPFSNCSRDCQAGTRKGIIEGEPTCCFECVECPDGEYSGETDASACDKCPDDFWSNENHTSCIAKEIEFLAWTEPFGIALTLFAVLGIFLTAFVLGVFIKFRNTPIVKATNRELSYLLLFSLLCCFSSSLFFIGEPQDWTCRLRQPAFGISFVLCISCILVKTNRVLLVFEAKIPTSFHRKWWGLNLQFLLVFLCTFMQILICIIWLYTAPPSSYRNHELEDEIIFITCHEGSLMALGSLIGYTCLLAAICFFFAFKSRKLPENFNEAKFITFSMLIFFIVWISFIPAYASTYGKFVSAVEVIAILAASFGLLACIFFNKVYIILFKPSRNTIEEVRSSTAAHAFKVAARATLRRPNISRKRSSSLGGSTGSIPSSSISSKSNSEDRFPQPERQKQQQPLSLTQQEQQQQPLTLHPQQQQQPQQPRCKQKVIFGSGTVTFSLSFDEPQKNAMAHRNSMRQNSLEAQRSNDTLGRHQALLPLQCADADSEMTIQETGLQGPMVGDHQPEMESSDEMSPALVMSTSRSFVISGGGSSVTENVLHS
Procedure: Equal amounts of lysates were subjected to 10% SDS-PAGE, and phospho-ERK1/2 levels were determined by immunoblotting using antiphospho-ERK1/2 mitogen-activated protein kinase antibody (Cell Signaling Technology). […] An anti-peptide antibody was raised in a rabbit against a peptide ([…] (SEQ ID NO: 27)) corresponding to a sequence in the extracellular domain of mouse GPRC6A (in exon 1 of mouse GPRC6A gene) produced by Abgent (San Diego, Calif.). For phospho-ERK, the phospho-ERK1/2 levels were determined by immunoblotting using anti-phospho-ERK1/2 mitogen-activated protein kinase antibody (Cell Signaling Technology). Urinary β2-microglobulin was detected by rabbit polyclonal anti-β2-microglobulin antibody (Abcam Inc.). For aromatase expression analysis, the rabbit polyclonal anti-aromatase antibody (Abcam Inc.) and goat anti-rabbit IgG HRP secondary antibody (Santa Cruz Biotechnology Inc.) were used. Mouse anti-Actin antibody (Santa Cruz Biotechnology Inc.) was used for control protein loading.

[2] = tested on: bone marrow stromal cells (BMSC); test: phospho-ERK in bone marrow stromal cells from wild-type and GPRC6A-/- mice; type: cell-based, mouse
Procedure: The femurs and tibias from 8-week-old wild-type and GPRC6A^−/− mice were dissected, the ends of the bones were cut, and marrow was flushed out with 2 mL of ice-cold a-MEM containing 10% FBS using a needle and syringe. A suspension of bone marrow cells was obtained by repeated aspiration of the cell preparation through a 22-gauge needle, and nucleated cells were counted with a hemocytometer. Cells were seeded into 6-well plates at a density of 3×10^7 cells/mL and cultured for three days in a-MEM supplemented with 10% FBS, 100 kU/L of sodium penicillin G and 100 mg/L of streptomycin sulfate in a humidified incubator with 5% CO2 and 95% air at a temperature of 37° C. On day 3, all nonadherent cells were then removed with the first medium change and then the adherent cells (representing bone marrow-derived mesenchymal stem cells, BMSCs) were grown for additional periods of up 3 days in the same medium. After overnight quiescence, the cells were stimulated for 5 minutes by testosterone and p-estradiol at the concentrations as indicated.

## C[C@]12CC[C@H]3[C@@H](CCC4=CC(=O)CC[C@@]43C)[C@@H]1CC[C@@H]2O [testosterone]
[1]
  phospho-ERK response: did not responded
[2]; BMSC from GPRC6A-/- mice, testosterone up to 80 nM
  stimulation of phospho-ERK in BMSC: only minimal effects
[2]; BMSC from wild-type mice
  stimulation of phospho-ERK in BMSC: substantial stimulation of ERK
